This note sets out measurements from ChEMBL document CHEMBL1649394, “Cytotoxic and protective DNA damage of three new diterpenoids from the brown alga Dictoyota dichotoma” (Eur J Med Chem, 2011).

≈ marks a conversion by molar mass, not a printed value. Calls of active or inactive are those of the source. The calls are words filed in the database; no cut-off is given here.

Data set [1] relates to Calf thymus DNA. The data set can be described thus: Protective activity against bleomycin-iron complex-induced calf thymus DNA damage assessed as chromogen formation at 0.1 mg/ml after 1 hr. It is filed as nucleic-acid assay. The conditions noted are these: Bos taurus.
Data set [2] has as its system HepG2. Put plainly: Cytotoxicity against human HepG2 cells assessed as loss of cell monolayers after 96 hrs. It is filed as functional, cell-based. The conditions noted are these: HepG2, 96 h.
A short description of data set [3]: Cytotoxicity against human WI38 cells assessed as loss of cell monolayers after 96 hrs. The conditions noted are these: WI-38, 96 h. It is filed as cell-based.
In data set [4] the test system is Vero. Put plainly: Cytotoxicity against african green monkey Vero cells assessed as loss of cell monolayers after 96 hrs. The format is cell-based. The conditions noted are these: Chlorocebus sabaeus.
For data set [5], the system named is MCF7. The data set can be described thus: Cytotoxicity against human MCF7 cells assessed as loss of cell monolayers after 96 hrs. The format is functional, cell-based. The conditions noted are these: MCF7, 96 h.
Data set [6] in a line: Cytotoxicity against mouse EAC assessed as dead cells at 1 mg/ml after 2 hrs using trypan blue staining by hemocytometer analysis. It is filed as functional, Ehrlich.
The subject of data set [7] is Brain. The data set can be described thus: Antioxidant activity in rat brain/kidney homogenates assessed as inhibition of lipid peroxidation at 2 mM by […] method. It is filed as functional, tissue-based.
Data set [8] in a line: Toxicity in rat erythrocytes assessed as hemolysis at 2 mM. The format is cell-based, Erythrocyte. The conditions noted are these: read-out: Activity.
Data set [9] is described as follows: Cytotoxicity against human WI38 cells assessed as cell viability at 10 ug/ml after 96 hrs relative to control. It is filed as cell-based, WI-38. The conditions noted are these: read-out: Activity.
A short description of data set [10]: Cytotoxicity against human WI38 cells assessed as cell viability at 100 ug/ml after 96 hrs relative to control. It is filed as cell-based, WI-38. The conditions noted are these: read-out: Activity.
Data set [11] in a line: Cytotoxicity against human WI38 cells assessed as cell viability at 50 ug/ml after 96 hrs relative to control. The conditions noted are these: read-out: Activity. It is filed as cell-based, WI-38.
Data set [12] can be described thus: Cytotoxicity against mouse EAC assessed as dead cells at 25 ug/ml after 2 hrs using trypan blue staining by hemocytometer analysis. The format is functional, Ehrlich.

In general, IC50 refers to the concentration at which inhibition is half-maximal. A word on the inhibition: it is the change of the read-out against control, counted positive when it falls. Consider `C=C1C[C@@H](O)[C@@H]([C@H](C)CCC=C(C)C)[C@@H](O)[C@@H]2C(C)=CC[C@@H]12`, for which, in data set [1], the result was Active. Further, the IC50 in data set [2] was 81.2 µg/mL (≈ 267 µM); in [3], 62.6 µg/mL (≈ 206 µM); in data set [4], 72.3 µg/mL (≈ 237 µM); in [5], 68.2 µg/mL (≈ 224 µM). In addition, the Activity in data set [6] is on record as 60.9%. In data set [7], the inhibition came out at 61.6%. Moreover, the hemolysis at 2000 µM in [8] is 1.1%.
With `C=C1CC[C@H](OC(C)=O)[C@]2(C)CCC3=C(C(C)C)CC[C@@]3(C)C[C@@]12O` [AMIJIOL ACETATE], the result in data set [1] was Active. Further, the IC50 in [2] amounted to 25.1 µg/mL; in data set [3] it was 14.2 µg/mL; in data set [4] it was 20.5 µg/mL; in data set [5] it was 21.2 µg/mL. The viability at 96 h, 10 ug/ml in data set [9] came to 65%. Also, the viability at 96 h, 100 ug/ml in data set [10] is 0%. The viability at 96 h, 50 ug/ml in [11] was 12%. The Activity in data set [6] was 85.9%. In [7], the inhibition is 83.3%. Also, in [8], the hemolysis at 2000 µM was 0.7%.
For `C=C1CC[C@H](O)[C@]2(C)C[C@H](OC(C)=O)C3=C(C(C)C)[C@H](OC(C)=O)C[C@@]3(C)C[C@@]12O` [AMIJIOL-7,10-DIACETATE], the result in data set [1] was Active. Besides, the concentration for half-maximal inhibition (IC50) in [2] was 47 µg/mL (≈ 112 µM); in data set [3], 16.2 µg/mL (≈ 38.5 µM); in data set [4], 21.4 µg/mL (≈ 50.9 µM); in data set [5], 30.5 µg/mL (≈ 72.5 µM). The Activity in data set [6] stood at 71.2%. In data set [7], the inhibition stood at 80.2%. Also, the hemolysis at 2000 µM in [8] turned out to be 1.4%.
Regarding `C=C1CC[C@H](O)[C@]2(C)CCC3=C(C(C)C)CC[C@@]3(C)C[C@@]12O` [AMIJIOL], in [1], the outcome was Active. The IC50 was 70.2 µg/mL (≈ 231 µM) in data set [2], 84.6 µg/mL (≈ 278 µM) in data set [3], 76.4 µg/mL (≈ 251 µM) in data set [4] and 75.5 µg/mL (≈ 248 µM) in data set [5]. In addition, the Activity in data set [6] is recorded as 56%. In addition, the inhibition in [7] was found to be 59.2%. In data set [8], the hemolysis at 2000 µM is 0.5%.
Turning to `O=C1O[C@H]([C@@H](O)CO)C(O)=C1O` [ASCORBIC ACID], the inhibition in data set [7] amounted to 88.6%. Also, the hemolysis at 2000 µM in data set [8] came to 0.85%.
For the molecule `CC(C)=CCC[C@@H](C)[C@H]1[C@@H](O)[C@@H]2C(C)=CC[C@H]2[C@@](C)(O)C[C@H]1O` [DICTYOL C], the result in [1] was inactive. In addition, the concentration for half-maximal inhibition (IC50) in data set [2] amounted to 101 µg/mL (≈ 312 µM); in data set [3] it was 111 µg/mL (≈ 343 µM); in data set [4], 161 µg/mL (≈ 498 µM); in data set [5] it was 140 µg/mL (≈ 436 µM). In data set [6], the Activity was determined as 18%. The inhibition in data set [7] was 57.7%. For the same molecule, the hemolysis at 2000 µM in data set [8] is 1.1%.
On to `C/C1=C\[C@@H](O)C/C(C)=C/C[C@]2(C)CCC(C(C)C)=C2CC1` [DOLABELLATRIENOL], for which the outcome in data set [1] was inactive. The IC50 in data set [2] came to 102 µg/mL (≈ 355 µM); in [3], 101 µg/mL (≈ 349 µM); in data set [4], 121 µg/mL (≈ 418 µM); in [5], 150 µg/mL (≈ 522 µM). Besides, in data set [6], the Activity turned out to be 15.1%. Besides, the inhibition in data set [7] is 24.4%. The hemolysis at 2000 µM in [8] stood at 5.75%.
Turning to `O=c1[nH]cc(F)c(=O)[nH]1` [FLUOROURACIL], the IC50 was determined as 8.6 µg/mL (≈ 66.1 µM) in [2], 3.2 µg/mL (≈ 24.6 µM) in data set [3], 6.5 µg/mL (≈ 50 µM) in [4] and 2.3 µg/mL (≈ 17.7 µM) in data set [5]. Moreover, the Activity in [12] was 99.5%.
For the molecule `CC(C)=CCCC(C)C1CC/C(C)=C/CCC2COC(O)C21` (configuration not stated) [ISODICTYOHEMIACETAL], the outcome in data set [1] was Active. In addition, the IC50 was 70.2 µg/mL (≈ 229 µM) in [2], 84.6 µg/mL (≈ 276 µM) in data set [3], 76.4 µg/mL (≈ 249 µM) in data set [4] and 75.5 µg/mL (≈ 246 µM) in data set [5]. Also, the Activity in data set [6] stood at 59.1%. The inhibition in [7] came to 57.4%. In addition, the hemolysis at 2000 µM in data set [8] was found to be 0.75%.
As for `CC(C)=CCC[C@@H](C)[C@@H]1CC=C(C)[C@@H]2CC=C(C)[C@H]2[C@@H]1O` [ISOPACHYDICTYOL A], in data set [1], the outcome was Active. In addition, the half-maximal inhibitory concentration (IC50) came to 39.2 µg/mL (≈ 136 µM) in [2], 22.4 µg/mL (≈ 77.6 µM) in data set [3], 28.3 µg/mL (≈ 98.1 µM) in data set [4] and 39.2 µg/mL (≈ 136 µM) in data set [5]. For the same molecule, the Activity in [6] was 48.4%. For the same molecule, the inhibition in data set [7] was found to be 59.9%. For the same molecule, in data set [8], the hemolysis at 2000 µM stood at 1.4%.
Turning to `C=C1CC[C@@H]([C@H](C)CCC=C(C)C)[C@@H](O)[C@@H]2C(C)=CC[C@@H]12` [PACHYDICTYOL A], in data set [1], the outcome was Active. The IC50 was 40.2 µg/mL (≈ 139 µM) in [2], 24.6 µg/mL (≈ 85.3 µM) in data set [3], 27.4 µg/mL (≈ 95 µM) in data set [4] and 37.5 µg/mL (≈ 130 µM) in data set [5]. Besides, in [6], the Activity is given as 42.9%. The inhibition in [7] was 50.2%. Moreover, the hemolysis at 2000 µM in data set [8] is 2.45%.
